Measurements: patent US7678368B2, “Fucoidan-containing cosmetics” (Takara Bio Inc., priority 1999, dated 2010)

Experiments:
C3H/He mice [1] = assay: Trichogenous ratio, Fucoidan Bf combined with carpronium chloride or minoxidil (Example 19); type: in vivo, mouse; settings: for Trichogenous Ratio (%) (Trichogenous Area/Shaved Area): 200 μL once a day, 6 cases; for Trichogenous Ratio (%) (Trichogenous Area/Shaved Area) / Number of Individuals with Trichogenous Ratio of 60% or More: twenty-first day after shaving
Method: Male C3H/He mice were purchased from Nippon SLC and used for an experiment from 8 week-old after pre-breeding the mice. The hair on the backside of each mouse was cut with hair clippers, and thereafter shaved with a razor. […] The resulting ethanol solution was applied onto the above hair-cut site of the backside of the mice in an amount of 200 μL per mouse. To the control group, 30% ethanol solution was similarly applied. The mice were administered once a day, for consecutive days. The administered sites were observed over the passage of time from the day of the beginning of administration (the day following the shaving), and the trichogenous area was determined on the twenty-first day after shaving and expressed as the ratio (%) to the shaved area.

[2] = system: whiskers with the hair follicles of C3H/He mice; assay: Culture of mouse whiskers with hair follicles, length of grown whisker (Examples 15-18); type: cell-based; settings: whiskers of 6 day-old mice (Table 14)
From the text: (1) Two day-old male C3H/He mice were purchased from Nippon SLC together with the mother mice and used for an experiment from 5 day-old. The mice were sacrificed by exsanguination, and the whiskers together with the subcutaneous tissues were collected using scissors and tweezers. Further, the whiskers with the hair follicles were separated in a petri dish under the microscope according to the method by Ogawa et al. (J. Invest. Dermatol 103: 306-309, 1994). Fourteen to sixteen whiskers were collected from the right and left sides per mouse. […] Here, the given concentrations of each sample added are respectively expressed as the concentration per mL medium (mg/mL) in Table 10. […] The length of whisker was determined to the order of 0.1 mm before the beginning and after the termination of the culture under the microscope using a caliper. […] In addition, Student's t-test was used for test of significance, and P value was determined against the control group. […] The hair restoring effects for the fucoidan derived from Kjellmaniella crassifolia described in item (1) of Example 1 and 7-12SFd-F described in item (3) of Example 2 were evaluated in the same manner as in item (1) of Example 15. […] The hair restoring effects for Fucoidan Bf described in item (1) of Example 16 and F-rich fucoidan described in item (2) of Example 16 were evaluated in the same manner as in item (1) of Example 15. […]

C3H/He mice [3] = assay: Hair restoring effect of sulfated monosaccharides, scoring as in Example 13(3) (Example 14(2)); type: in vivo, mouse; settings: 3% in 50% ethanol, 200 μL once a day, score 0-4
Method: The administered site was observed over the passage of time from the beginning of administration, and a change in the skin color tone was evaluated by scoring. Specifically, the scoring criteria were defined as follows: Score 0: no change in the skin color, Score 1: the skin color being changed to blue, Score 2: the skin color being changed to black-blue to gray, Score 3: trichogenous state being observed, and Score 4: the state before the hair cutting being almost restored. (3) Male C3H/He mice were purchased from Nippon SLC and used for an experiment from 8 week-old after pre-breeding the mice. The hair on the backside of each mouse was cut with hair clippers, and thereafter shaved with a razor. (2) The hair restoring effect of the sulfated glucose prepared in item (1) of Example 14 was studied in the same manner as in item (3) of Example 13. Here, the sulfated glucose was dissolved in 50% ethanol in a concentration of 3%, and the resulting solution was applied onto the backside of the mice once a day in an amount of 200 μL per mouse. To the control group, 50% ethanol alone was applied. […] In addition, similar tests were carried out for the sulfated fucose, the sulfated mannose, the sulfated galactose, the sulfated xylose, the sulfated 2-deoxy-glucose and the sulfated talose.

Compound: Nc1cc(N2CCCCC2)nc(N)[n+]1[O-] [Minoxidil, minoxidil]
- Trichogenous Ratio (%) (Trichogenous Area/Shaved Area) (C3H/He mice [1]; 0.1% in 30% ethanol): 42.9 ± 5.5%
- Number of Individuals with Trichogenous Ratio of 60% or More (C3H/He mice [1]; 0.1% in 30% ethanol): 1/6
- Trichogenous Ratio (%) (Trichogenous Area/Shaved Area) (C3H/He mice [1]; 1% in 30% ethanol): 69.1 ± 13.9%
- Number of Individuals with Trichogenous Ratio of 60% or More (C3H/He mice [1]; 1% in 30% ethanol): 4/6

Compound: COC(=O)CCC[N+](C)(C)C.[Cl-] [Carpronium Chloride, carpronium chloride]
- Trichogenous Ratio (%) (Trichogenous Area/Shaved Area) (C3H/He mice [1]; 0.5% in 30% ethanol): 23.9 ± 4.9%
- Number of Individuals with Trichogenous Ratio of 60% or More (C3H/He mice [1]; 0.5% in 30% ethanol): 0/6
- hair restoring effect (C3H/He mice [1]; administration by application alone (0.5%)): No hair restoring effect

Compound: sulfated (—SO3—Na^+) D-(+)-glucose [Sulfated Glucose]
- Length of Grown Whisker (mm) (Average Value ± Standard Error) ([2]; 0.1 mg/mL): 0.39 ± 0.11 mm
- Length of Grown Whisker (mm) (Average Value ± Standard Error) ([2]; 1 mg/mL): 1.31 ± 0.31 mm
- Average Score (C3H/He mice [3]; duration of administration 11 days): 0.6
- Average Score (C3H/He mice [3]; duration of administration 12 days): 0.6
- Average Score (C3H/He mice [3]; duration of administration 13 days): 1.0
- Average Score (C3H/He mice [3]; duration of administration 14 days): 1.6
- Average Score (C3H/He mice [3]; duration of administration 15 days): 1.8
